Results: US10457667B2, “Indolin-2-one derivatives” (Hoffmann-La Roche Inc., priority 2015, dated 2019)

Biological target: T1, mouse ENT-1 transporter (Mus musculus, UniProt Q9JIM1)
T1 construct: expressed in transfected cells
T1 sequence (Q9JIM1 1-460): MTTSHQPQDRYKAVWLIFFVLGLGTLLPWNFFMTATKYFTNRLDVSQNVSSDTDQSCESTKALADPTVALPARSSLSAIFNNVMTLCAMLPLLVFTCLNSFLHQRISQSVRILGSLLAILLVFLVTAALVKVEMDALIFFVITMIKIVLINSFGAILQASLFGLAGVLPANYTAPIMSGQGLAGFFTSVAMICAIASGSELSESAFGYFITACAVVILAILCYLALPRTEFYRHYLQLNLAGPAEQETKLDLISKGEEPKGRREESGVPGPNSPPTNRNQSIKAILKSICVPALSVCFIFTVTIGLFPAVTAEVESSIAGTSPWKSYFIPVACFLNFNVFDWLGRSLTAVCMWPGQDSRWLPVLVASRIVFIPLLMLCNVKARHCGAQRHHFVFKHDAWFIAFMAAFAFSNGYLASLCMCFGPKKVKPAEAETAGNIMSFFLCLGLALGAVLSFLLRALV
Experiment: ENT1 adenosine uptake inhibition ([3H]-adenosine transport activity)
Format: cell-based
Conditions: stable cells expressing mouse ENT-1; [2,8-3H]-adenosine 6 nM, 20 min
Experimental: To measure adenosine transport activity of ENT-1 mammalian cells, stable cells expressing the mouse ENT-1 transporter were plated on day 1 in 96-well culture plates at the density of 60,000 cells/well, in complete DMEM/F12 medium supplemented with glutamax, 10% FBS and 10 μg/ml puromycin. On day 2, the medium was aspirated and the cells were washed twice with uptake buffer (10 mM Hepes-Tris, pH 7.4 containing 150 mM NaCl, 1 mM CaCl2, 2.5 mM KCl, 2.5 mM MgSO4, 10 mM D-glucose) (UB). For inhibition experiments, cells were then incubated at RT with various concentrations of compounds with 1% DMSO final. Non-specific uptake was defined in the presence of 10 μM S-(4-Nitrobenzyl)-6-thioinosine (NBTI, Sigma Cat #N2255).
A solution containing [2,8-^3H]-adenosine 6 nM (40 Ci/mmol, American Radiolabeled chemicals Inc, Cat #ART 0287A) was then immediately added to the wells. The plates were then incubated for 20 min with gentle shaking and the reaction was stopped by aspiration of the mixture and washing (three times) with ice-cold UB. The cells were lysed by the addition of scintillation liquid, shaken 3 hours and the radioactivity in the cells was estimated using a microplates scintillation counter (TopCount NXT, Packard).

| Structure (SMILES) | IC50 [nM] |
| --- | --- |
| COc1cc(N2C(=O)C(C)(C)c3ccc(-c4cnc(C)nc4)cc32)cnc1Cl [Example 9, 1-(6-Chloro-5-methoxypyridin-3-yl)-3,3-dimethyl-6-(2-methylpyrimidin-5-yl)indolin-2-one] | 154 |
| COc1cncc(N2C(=O)C(C)(C)c3ccc(-c4cnc(C)nc4)cc32)n1 [Example 1, 1-(6-Methoxypyrazin-2-yl)-3,3-dimethyl-6-(2-methylpyrimidin-5-yl)indolin-2-one] | 73 |
| COc1cc(N2C(=O)C(C)(C)c3ccc(-c4cnc(C)nc4)cc32)nc(OC)n1 [Example 4, 1-(2,6-Dimethoxypyrimidin-4-yl)-3,3-dimethyl-6-(2-methylpyrimidin-5-yl)indolin-2-one] | 110 |
| COc1cccc(N2C(=O)C(C)(C)c3ccc(-c4cnc(C)nc4)cc32)c1 [Example 6, 1-(3-Methoxyphenyl)-3,3-dimethyl-6-(2-methylpyrimidin-5-yl)indolin-2-one] | 289 |
| COc1cc(N2C(=O)C(C)(C)c3ccc(-c4cnc(C)nc4)cc32)cnc1C [Example 3, 1-(5-Methoxy-6-methylpyridin-3-yl)-3,3-dimethyl-6-(2-methylpyrimidin-5-yl)indolin-2-one] | 242 |
| Cc1ncc(-c2ccc3c(c2)N(c2cncc(OC(C)C)c2)C(=O)C3(C)C)cn1 [Example 7, 1-(5-Isopropoxypyridin-3-yl)-3,3-dimethyl-6-(2-methylpyrimidin-5-yl)indolin-2-one] | 183 |
| Cc1ncc(-c2ccc3c(c2)N(c2cnc4c(c2)OCCN4)C(=O)C3(C)C)cn1 [Example 8, 1-(3,4-Dihydro-2H-pyrido[3,2-b][1,4]oxazin-7-yl)-3,3-dimethyl-6-(2-methylpyrimidin-5-yl)indolin-2-one] | 951 |
| CCOc1cncc(N2C(=O)C(C)(C)c3ccc(-c4cnc(C)nc4)cc32)c1 [Example 5, 1-(5-Ethoxypyridin-3-yl)-3,3-dimethyl-6-(2-methylpyrimidin-5-yl)indolin-2-one] | 64.3 |

Now from value to molecule:

| IC50 [nM] | Structure (SMILES) |
| --- | --- |
| 785 | COc1cncc(N2C(=O)C3(CCC3)c3ccc(-c4cnc(C)nc4)cc32)c1 [Example 19, 1′-(5-Methoxypyridin-3-yl)-6′-(2-methylpyrimidin-5-yl)spiro[cyclobutane-1,3′-indolin]-2′-one] |
| 823 | Cc1ncc(-c2ccc3c(c2)N(c2cnc(OC4COC4)nc2)C(=O)C3(C)C)cn1 [Example 17, 3,3-Dimethyl-6-(2-methylpyrimidin-5-yl)-1-(2-(oxetan-3-yloxy)pyrimidin-5-yl)indolin-2-one] |
| 615 | Cc1ncc(-c2ccc3c(c2)N(c2ccc(O)nn2)C(=O)C3(C)C)cn1 [Example 13, 1-(6-Hydroxypyridazin-3-yl)-3,3-dimethyl-6-(2-methylpyrimidin-5-yl)indolin-2-one] |
| 139 | COc1cc(N2C(=O)C(C)(C)c3ccc(-c4cnc(C)nc4)cc32)cnc1C1CC1 [Example 10, 1-(6-Cyclopropyl-5-methoxypyridin-3-yl)-3,3-dimethyl-6-(2-methylpyrimidin-5-yl)indolin-2-one] |
| 34.8 | COc1ccc(N2C(=O)C(C)(C)c3ccc(-c4cnc(C)nc4)cc32)nn1 [Example 12, 1-(6-Methoxypyridazin-3-yl)-3,3-dimethyl-6-(2-methylpyrimidin-5-yl)indolin-2-one] |
| 811 | Cc1ncc(-c2ccc3c(c2)N(c2ccc(OCC(F)(F)F)nc2)C(=O)C3(C)C)cn1 [Example 16, 3,3-Dimethyl-6-(2-methylpyrimidin-5-yl)-1-(6-(2,2,2-trifluoroethoxy)pyridin-3-yl)indolin-2-one] |
| 272 | COc1cnc(N2C(=O)C(C)(C)c3ccc(-c4cnc(C)nc4)cc32)cn1 [Example 11, 1-(5-Methoxypyrazin-2-yl)-3,3-dimethyl-6-(2-methylpyrimidin-5-yl)indolin-2-one] |
| 118 | Cc1ncc(-c2ccc3c(c2)N(c2ccc(OC(F)(F)F)cn2)C(=O)C3(C)C)cn1 [Example 14, 3,3-Dimethyl-6-(2-methylpyrimidin-5-yl)-1-(5-(trifluoromethoxy)pyridin-2-yl)indolin-2-one] |
| 130 | COc1ccc(N2C(=O)C3(CCC3)c3ccc(-c4cnc(C)nc4)cc32)nn1 [Example 20, 1′-(6-Methoxypyridazin-3-yl)-6′-(2-methylpyrimidin-5-yl)spiro[cyclobutane-1,3′-indolin]-2′-one] |
| 50.9 | Cc1ncc(-c2ccc3c(c2)N(c2ccc4onc(C)c4c2)C(=O)C3(C)C)cn1 [Example 18, 3,3-Dimethyl-1-(3-methylbenzo[d]isoxazol-5-yl)-6-(2-methylpyrimidin-5-yl)indolin-2-one] |
| 843 | COc1ncc(N2C(=O)C(C)(C)c3ccc(-c4cnc(C)nc4)cc32)cn1 [Example 15, 1-(2-Methoxypyrimidin-5-yl)-3,3-dimethyl-6-(2-methylpyrimidin-5-yl)indolin-2-one] |

Tested on: behaviors of compound-treated mice
Experiment: SmartCube behavioral signature similarity analysis
Format: in vivo, mouse
Conditions: SmartCube; test compound at 3 mg/kg i.p.; rate of 0.70 or lower = similar
From the text: authors described that hyperlocomotion induced by L-687,414 was inhibited by a series of known antipsychotic drugs. […] These findings predict antipsychotic activity for the present compounds, making them useful for the treatment of positive (psychosis) and negative symptoms of schizophrenia, substance abuse, alcohol and drug addiction, obsessive-compulsive disorders, cognitive impairment, bipolar disorders, mood disorders, major depression, resistant depression, anxiety disorders, Alzheimer's disease, autism, Parkinson's disease, chronic pain, borderline personality disorder, sleep disturbances, chronic fatigue syndrome, stiffness, antiinflammatory effects in arthritis and balance problems, epilepsy and neurodevelopmental disorders with co morbid epilepsy. In addition to the reversal of L-687,414 induced hyperlocomotion experiment as described above, some compounds of the present invention have been tested in SmartCube®, an automated system in which the behaviors of compound-treated mice in response to multiple challenges are captured by digital video and analyzed with computer algorithms (Roberds et al., Frontiers in Neuroscience, 2011, Vol. 5, Art. 103, 1-4; Vadim Alexandrov, Dani Brunner, Taleen Hanania, Emer Leahy Eur. J. Pharmacol. 2015, 750, 82-99). In this way, the neuro-pharmacological effects of a test compound can be predicted by similarity to major classes of compounds, such as antipsychotics, anxiolytics and antidepressants.
SmartCube® was used to compare the behavioral signature of a test compound to a database of behavioral signatures obtained from a large set of clinically approved reference drugs, grouped per indications. In this way, the neuro-pharmacological effects of a test compound can be predicted by similarity to major classes of compounds, such as antipsychotics, anxiolytics and antidepressants. This approach is ideally suited to screen collections of existing drugs or drug candidates with previously unknown neuropharmacology, which could expedite the development of new and unexpected treatments for psychiatric disorders.
Some compounds of the present invention were injected i.p. at different doses 15 minutes before the test. At least 8 mice were used in each treatment group. Digital videos of the subjects were processed with computer vision algorithms to extract over 2000 dependent measures including frequency and duration of many different behavioral states. The results of the classifications are presented as bar charts for each compound and dose (mg/kg), the Y-axis indicates the relative probability that the test compound will show efficacy in the specific CNS indication.
Compounds of the present invention show similar signatures to those of atypical antipsychotics. An independent analysis was performed on the unclassified data to determine the similarity of the example compounds to active doses of known atypical antipsychotics. For this analysis, we use discrimination rate as the measure of separability between the two drugs, i.e. one drug's “distinguishability” from another. A rate equal to 50% (or 0.5) corresponds to zero distinguishability. […] In most cases, the example compounds show a similarity to risperidone, clozapine and olanzapine with a discrimination rate of ≤0.70.

| Structure (SMILES) | discrimination rate vs Clozapine (1.0 mg/kg) | discrimination rate vs Olanzapine (0.25 mg/kg) | discrimination rate vs Risperidone (0.06 mg/kg) |
| --- | --- | --- | --- |
| COc1ccc(N2C(=O)C(C)(C)c3ccc(-c4cnc(C)nc4)cc32)nn1 [Example 12, 1-(6-Methoxypyridazin-3-yl)-3,3-dimethyl-6-(2-methylpyrimidin-5-yl)indolin-2-one] | 0.67 | 0.63 | 0.56 |

Same assay, conditions: mice; result in words

| Structure (SMILES) | SmartCube behavioral signature classification |
| --- | --- |
| COc1ccc(N2C(=O)C(C)(C)c3ccc(-c4cnc(C)nc4)cc32)nn1 [Example 12, 1-(6-Methoxypyridazin-3-yl)-3,3-dimethyl-6-(2-methylpyrimidin-5-yl)indolin-2-one] | similarity to atypical antipsychotics |

Tested on: L-687,414-induced hyperlocomotion
Experiment: L-687,414-induced hyperlocomotion
Format: in vivo, mouse
Conditions: mice; dose 30 mg/kg ip, 15 min before s.c. 50 mg/kg L-687,414
Experimental: The described compounds of formula I reduce L-687,414-induced hyperlocomotion. This was assessed by using a computerized Digiscan 16 Animal Activity Monitoring System (Omnitech Electronics, Columbus, Ohio) to quantify locomotor activity. Animals were kept under a 12 h light/dark cycle and experiments were performed during the light period. Each activity monitoring chamber consisted of a Plexiglas box (41×41×28 cm; W×L×H) with sawdust bedding on the floor surrounded by invisible horizontal and vertical infrared sensor beams. The test boxes were divided by a Plexiglas cross providing each mouse with 20×20 cm of moving space. Cages were connected to a Digiscan Analyzer linked to a computer that constantly collected the beam status information. Records of photocell beam interruptions for individual animals were taken every 5 min over the duration of the experimental session and the sum of the first 6 periods was used as the final parameter. At least 8 mice were used in each treatment group. Compounds were administered i.p 15 min before a s.c. injection of 50 mg/kg of L-687,414. […] Horizontal activity was then recorded for a 30-min time period. The % inhibition of L-687,414-induced hyperlocomotion was calculated according to the equation: ((Veh+L−687,414 horizontal activity−drug+L−687,414 horizontal activity)/Veh+L−687,414 horizontal activity)×100 […]

| Structure (SMILES) | Inhibition, ip of L-687,414-induced hyperlocomotion [%] |
| --- | --- |
| COc1ccc(N2C(=O)C(C)(C)c3ccc(-c4cnc(C)nc4)cc32)nn1 [Example 12, 1-(6-Methoxypyridazin-3-yl)-3,3-dimethyl-6-(2-methylpyrimidin-5-yl)indolin-2-one] | 94.6 |
